According to PMC5218480 (PLoS ONE, 2017):

System: MV-4-11 cells
Test: Gene expression microarray analysis (Affymetrix PrimeView) and GSEA
Assay type: cell-based, human
Design: RFU PODN (11730768_x_at) / Fold change /veh PODN (11730768_x_at) / RFU LINC00158 (11744669_a_at) / Fold change /veh LINC00158 (11744669_a_at) / RFU DUSP10 (11751237_a_at) / Fold change /veh DUSP10 (11751237_a_at) / RFU ID3 (11757404_x_at) / Fold change /veh ID3 (11757404_x_at) / RFU PLEKHG5 (11737974_s_at) / Fold change /veh PLEKHG5 (11737974_s_at) / RFU LRRC4B (11730491_at) / Fold change /veh LRRC4B (11730491_at) / RFU GIMAP4 (11747438_a_at) / Fold change /veh GIMAP4 (11747438_a_at) / RFU KRT8 (11758183_x_at) / Fold change /veh KRT8 (11758183_x_at) / RFU CNN1 (11734310_a_at) / Fold change /veh CNN1 (11734310_a_at) / RFU VPS37D (11726825_at) / Fold change /veh VPS37D (11726825_at) / RFU C10orf10 (11716522_x_at) / Fold change /veh C10orf10 (11716522_x_at) / RFU KIR2DL2 /// KIR2DL4 /// KIR2DL5A /// KIR2DL5B /// KIR2DS1 /// KIR2DS2 /// KIR2DS3 /// KIR2DS4 /// KIR3DL3 /// KIR3DL3 /// KIR3DS1 (11738374_at) / Fold change /veh KIR2DL2 /// KIR2DL4 /// KIR2DL5A /// KIR2DL5B /// KIR2DS1 /// KIR2DS2 /// KIR2DS3 /// KIR2DS4 /// KIR3DL3 /// KIR3DL3 /// KIR3DS1 (11738374_at) / RFU C1QL1 (11718748_at) / Fold change /veh C1QL1 (11718748_at) / RFU TMPRSS4 (11747572_a_at) / Fold change /veh TMPRSS4 (11747572_a_at) / RFU HAMP (11756126_x_at) / Fold change /veh HAMP (11756126_x_at) / RFU RNFT2 (11725882_a_at) / Fold change /veh RNFT2 (11725882_a_at) / RFU NR4A2 (11747474_a_at) / Fold change /veh NR4A2 (11747474_a_at) / RFU ABCC12 (11746883_a_at) / Fold change /veh ABCC12 (11746883_a_at) / RFU TMEM136 (11760407_x_at) / Fold change /veh TMEM136 (11760407_x_at) / RFU CLDN22 /// WWC2 (11732394_at) / Fold change /veh CLDN22 /// WWC2 (11732394_at) / RFU HLA-DPB1 (11760878_x_at) / Fold change /veh HLA-DPB1 (11760878_x_at) / RFU SPINT1 (11716480_a_at) / Fold change /veh SPINT1 (11716480_a_at) / RFU GAP43 (11754022_s_at) / Fold change /veh GAP43 (11754022_s_at) / RFU A4GNT (11735810_at) / Fold change /veh A4GNT (11735810_at) / RFU PRB3 (11715151_x_at) / Fold change /veh PRB3 (11715151_x_at) / RFU TUBB4B (11761932_at) / Fold change /veh TUBB4B (11761932_at) / RFU CAPN14 (11732068_a_at) / Fold change /veh CAPN14 (11732068_a_at) / RFU TMCC2 (11721928_a_at) / Fold change /veh TMCC2 (11721928_a_at) / RFU IRGQ (11745062_a_at) / Fold change /veh IRGQ (11745062_a_at) / RFU FAM174B (11720279_a_at) / Fold change /veh FAM174B (11720279_a_at) / RFU TMPRSS4 (11748680_a_at) / Fold change /veh TMPRSS4 (11748680_a_at) / RFU FAM212B (11763350_a_at) / Fold change /veh FAM212B (11763350_a_at) / RFU PLEKHG5 (11743358_a_at) / Fold change /veh PLEKHG5 (11743358_a_at) / RFU ZSCAN30 (11745921_a_at) / Fold change /veh ZSCAN30 (11745921_a_at) / RFU CMKLR1 (11741424_a_at) / Fold change /veh CMKLR1 (11741424_a_at) / RFU LOC101060620 /// MAPK8IP1 (11723275_at) / Fold change /veh LOC101060620 /// MAPK8IP1 (11723275_at) / RFU SPTSSB (11747773_x_at) / Fold change /veh SPTSSB (11747773_x_at) / RFU PRSS12 (11739890_at) / Fold change /veh PRSS12 (11739890_at) / RFU BIN1 (11741810_x_at) / Fold change /veh BIN1 (11741810_x_at) / RFU WNT11 (11732464_a_at) / Fold change /veh WNT11 (11732464_a_at) / RFU C10orf10 (11716521_a_at) / Fold change /veh C10orf10 (11716521_a_at) / RFU C5orf56 (11738089_at) / Fold change /veh C5orf56 (11738089_at) / RFU CYB561 (11721691_x_at) / Fold change /veh CYB561 (11721691_x_at) / RFU ANKRD19P (11752326_a_at) / Fold change /veh ANKRD19P (11752326_a_at) / RFU OR2T12 /// OR2T33 /// OR2T8 (11738714_s_at) / Fold change /veh OR2T12 /// OR2T33 /// OR2T8 (11738714_s_at) / RFU VCAN (11748164_a_at) / Fold change /veh VCAN (11748164_a_at) / RFU JSRP1 (11732532_at) / Fold change /veh JSRP1 (11732532_at) / RFU KRTAP10-11 (11738290_x_at) / Fold change /veh KRTAP10-11 (11738290_x_at) / RFU MYO3A (11730013_a_at) / Fold change /veh MYO3A (11730013_a_at) / RFU EBF3 (11725865_a_at) / Fold change /veh EBF3 (11725865_a_at) / RFU CAMK2N1 (11719241_x_at) / Fold change /veh CAMK2N1 (11719241_x_at) / RFU C5orf56 (11738088_a_at) / Fold change /veh C5orf56 (11738088_a_at) / RFU OLFML3 (11715873_a_at) / Fold change /veh OLFML3 (11715873_a_at) / RFU LOC100653217 /// NTM (11731650_a_at) / Fold change /veh LOC100653217 /// NTM (11731650_a_at) / RFU MAPK11 (11762145_a_at) / Fold change /veh MAPK11 (11762145_a_at) / RFU FIZ1 (11724087_x_at) / Fold change /veh FIZ1 (11724087_x_at) / RFU OASL (11726364_x_at) / Fold change /veh OASL (11726364_x_at) / RFU SOX15 (11748057_x_at) / Fold change /veh SOX15 (11748057_x_at) / RFU CD79A (11719716_a_at) / Fold change /veh CD79A (11719716_a_at) / RFU HIST1H1D (11736915_at) / Fold change /veh HIST1H1D (11736915_at) / RFU CASKIN2 (11723855_a_at) / Fold change /veh CASKIN2 (11723855_a_at) / RFU LOC730098 (11760151_x_at) / Fold change /veh LOC730098 (11760151_x_at) / RFU OR4N2 (11742367_at) / Fold change /veh OR4N2 (11742367_at) / RFU PRRT2 (11749266_a_at) / Fold change /veh PRRT2 (11749266_a_at) / RFU SNX32 (11753110_a_at) / Fold change /veh SNX32 (11753110_a_at) / RFU CDHR5 (11726645_a_at) / Fold change /veh CDHR5 (11726645_a_at) / RFU RCAN1 (11760418_a_at) / Fold change /veh RCAN1 (11760418_a_at) / RFU FAM167A (11723789_a_at) / Fold change /veh FAM167A (11723789_a_at) / RFU FAM26E (11764081_at) / Fold change /veh FAM26E (11764081_at) / RFU ISYNA1 (11749810_s_at) / Fold change /veh ISYNA1 (11749810_s_at) / RFU ACY1 (11761880_at) / Fold change /veh ACY1 (11761880_at) / RFU 11764098_at / Fold change /veh 11764098_at / RFU SAMD14 (11745864_x_at) / Fold change /veh SAMD14 (11745864_x_at) / RFU NPB (11741838_a_at) / Fold change /veh NPB (11741838_a_at) / RFU TMPRSS6 (11731388_a_at) / Fold change /veh TMPRSS6 (11731388_a_at) / RFU KRTAP10-2 (11738614_at) / Fold change /veh KRTAP10-2 (11738614_at) / RFU ARHGAP8 /// PRR5-ARHGAP8 (11727945_x_at) / Fold change /veh ARHGAP8 /// PRR5-ARHGAP8 (11727945_x_at) / RFU KRTAP5-7 /// NADSYN1 (11734609_at) / Fold change /veh KRTAP5-7 /// NADSYN1 (11734609_at) / RFU RASL12 (11751679_a_at) / Fold change /veh RASL12 (11751679_a_at) / RFU CDKN2B (11736163_a_at) / Fold change /veh CDKN2B (11736163_a_at) / RFU PRF1 (11729649_at) / Fold change /veh PRF1 (11729649_at) / RFU, ZNF638 /// ZNF638-IT1 / Fold change vs veh, ZNF638 /// ZNF638-IT1 / RFU, PANK3 / Fold change vs veh, PANK3 / RFU, SH3YL1 / Fold change vs veh, SH3YL1 / RFU, ZEB2 / Fold change vs veh, ZEB2 / RFU, NRIP1 / Fold change vs veh, NRIP1 / RFU, PTTG1IP / Fold change vs veh, PTTG1IP / RFU, CAPN2 / Fold change vs veh, CAPN2 / RFU, MED14 / Fold change vs veh, MED14 / RFU, SNORA58 / Fold change vs veh, SNORA58 / RFU, C1orf63 / Fold change vs veh, C1orf63 / RFU, LRRFIP1 / Fold change vs veh, LRRFIP1 / RFU, NDUFAF7 / Fold change vs veh, NDUFAF7 / RFU, SLC12A2 / Fold change vs veh, SLC12A2 / RFU, IBTK / Fold change vs veh, IBTK / RFU, ESF1 / Fold change vs veh, ESF1 / Fold change vs veh, TMEM50B / RFU, TAOK1 / Fold change vs veh, TAOK1 / RFU, ACBD3 / Fold change vs veh, ACBD3 / RFU, TMA16 / Fold change vs veh, TMA16 / RFU, RWDD3 / Fold change vs veh, RWDD3 / RFU, BCAT1 / Fold change vs veh, BCAT1 / RFU, EDEM3 / Fold change vs veh, EDEM3 / RFU, TMEM33 / Fold change vs veh, TMEM33 / RFU, WDR75 / Fold change vs veh, WDR75 / RFU, AHCTF1 / Fold change vs veh, AHCTF1 / RFU, TFRC / Fold change vs veh, TFRC / RFU, ZDHHC17 / Fold change vs veh, ZDHHC17 / RFU, NOM1 / Fold change vs veh, NOM1 / RFU, ARL8B / Fold change vs veh, ARL8B / RFU, ZBTB11 / Fold change vs veh, ZBTB11 / RFU, TAMM41 / Fold change vs veh, TAMM41 / RFU, KIAA1704 /// LOC100996395 / Fold change vs veh, KIAA1704 /// LOC100996395 / RFU, ING1 / Fold change vs veh, ING1 / RFU, TRMT61B / Fold change vs veh, TRMT61B / RFU, FUBP3 / Fold change vs veh, FUBP3 / RFU, TP53 / Fold change vs veh, TP53 / RFU, TNKS2 / Fold change vs veh, TNKS2 / RFU, ZFP14 / Fold change vs veh, ZFP14 / RFU, ACTR2 / Fold change vs veh, ACTR2 / RFU, PPP3R1 / Fold change vs veh, PPP3R1 / RFU, PIK3R1 / Fold change vs veh, PIK3R1 / RFU, HNRNPA1 / Fold change vs veh, HNRNPA1 / RFU, RNF170 / Fold change vs veh, RNF170 / RFU, ZNF28 / Fold change vs veh, ZNF28 / RFU, RNGTT / Fold change vs veh, RNGTT / RFU, OGT / Fold change vs veh, OGT / RFU, BRD1 / Fold change vs veh, BRD1 / RFU, MARS / Fold change vs veh, MARS / RFU, ZNF655 / Fold change vs veh, ZNF655 / RFU, FAHD1 / Fold change vs veh, FAHD1 / RFU, BDP1 / Fold change vs veh, BDP1 / RFU, LRRCC1 / Fold change vs veh, LRRCC1 / RFU, ARID1A / Fold change vs veh, ARID1A / RFU, ZNF146 / Fold change vs veh, ZNF146 / RFU, ZNF330 / Fold change vs veh, ZNF330 / RFU, GPN3 / Fold change vs veh, GPN3 / RFU, C9orf123 / Fold change vs veh, C9orf123 / RFU, N4BP2L2 / Fold change vs veh, N4BP2L2 / RFU, ARFIP1 / Fold change vs veh, ARFIP1 / RFU, FAM179B / Fold change vs veh, FAM179B / RFU, BCL10 / Fold change vs veh, BCL10 / RFU, UHRF1BP1L / Fold change vs veh, UHRF1BP1L / RFU, BET1 / Fold change vs veh, BET1 / RFU, CNOT2 / Fold change vs veh, CNOT2 / RFU, ZNF268 / Fold change vs veh, ZNF268 / Fold change vs veh, ZNF507 / RFU, DGCR2 / Fold change vs veh, DGCR2 / RFU, WDSUB1 / Fold change vs veh, WDSUB1 / Fold change vs veh, HSP90B1 /// MIR3652 / RFU, ADSS / Fold change vs veh, ADSS / RFU, GK / Fold change vs veh, GK / RFU, ZNF148 / Fold change vs veh, ZNF148 / RFU, TAF9 / Fold change vs veh, TAF9 / RFU, SLC1A5 / Fold change vs veh, SLC1A5 / RFU, SLMO2 / Fold change vs veh, SLMO2 / RFU, ABCC4 / Fold change vs veh, ABCC4 / RFU, LOC101060439 /// RAP1B / Fold change vs veh, LOC101060439 /// RAP1B / RFU, RFX7 / Fold change vs veh, RFX7 / RFU, GTPBP10 / Fold change vs veh, GTPBP10 / RFU, CNEP1R1 / Fold change vs veh, CNEP1R1 / RFU, BIVM-ERCC5 /// ERCC5 / Fold change vs veh, BIVM-ERCC5 /// ERCC5 / RFU, ILF3 / Fold change vs veh, ILF3 / RFU 11762660_at / Fold change /veh 11762660_at / RFU VCAN (11757783_s_at) / Fold change /veh VCAN (11757783_s_at) / RFU DDX43 (11728927_at) / Fold change /veh DDX43 (11728927_at) / RFU KRT8 (11758188_x_at) / Fold change /veh KRT8 (11758188_x_at) / RFU NKD1 (11759106_at) / Fold change /veh NKD1 (11759106_at) / RFU SRD5A1 (11742802_a_at) / Fold change /veh SRD5A1 (11742802_a_at) / RFU TPSAB1 /// TPSB2 (11721975_s_at) / Fold change /veh TPSAB1 /// TPSB2 (11721975_s_at) / RFU GSTM3 (11746129_a_at) / Fold change /veh GSTM3 (11746129_a_at) / RFU IL23R (11737362_x_at) / Fold change /veh IL23R (11737362_x_at) / RFU TMEM51 (11727254_a_at) / Fold change /veh TMEM51 (11727254_a_at) / RFU PIWIL2 (11732686_x_at) / Fold change /veh PIWIL2 (11732686_x_at) / RFU ORM1 (11744905_x_at) / Fold change /veh ORM1 (11744905_x_at) / RFU CCDC152 (11743942_at) / Fold change /veh CCDC152 (11743942_at) / RFU ECM1 (11717891_a_at) / Fold change /veh ECM1 (11717891_a_at) / RFU IL23R (11748794_a_at) / Fold change /veh IL23R (11748794_a_at) / RFU TNFAIP8L3 (11732012_x_at) / Fold change /veh TNFAIP8L3 (11732012_x_at) / RFU MBOAT4 (11741988_at) / Fold change /veh MBOAT4 (11741988_at) / RFU 11764193_at / Fold change /veh 11764193_at / RFU TMEM53 (11763286_at) / Fold change /veh TMEM53 (11763286_at) / RFU MAGEB2 (11727129_at) / Fold change /veh MAGEB2 (11727129_at) / RFU TMEM200A (11744735_a_at) / Fold change /veh TMEM200A (11744735_a_at) / RFU CCDC152 (11751479_a_at) / Fold change /veh CCDC152 (11751479_a_at) / RFU FAM211A (11726209_a_at) / Fold change /veh FAM211A (11726209_a_at) / RFU RGS16 (11746705_a_at) / Fold change /veh RGS16 (11746705_a_at) / RFU VCAN (11755009_s_at) / Fold change /veh VCAN (11755009_s_at) / RFU RHOB (11743442_s_at) / Fold change /veh RHOB (11743442_s_at) / RFU RGS16 (11720943_a_at) / Fold change /veh RGS16 (11720943_a_at) / RFU RGS16 (11720944_at) / Fold change /veh RGS16 (11720944_at) / RFU, VPS4B / Fold change vs veh, VPS4B / RFU, CREB1 / Fold change vs veh, CREB1 / RFU, DNAJC13 / Fold change vs veh, DNAJC13 / RFU, GNAQ / Fold change vs veh, GNAQ / RFU, CDK5R1 / Fold change vs veh, CDK5R1 / RFU, ZRANB3 / Fold change vs veh, ZRANB3 / RFU, CUL4A / Fold change vs veh, CUL4A / RFU, CCNY / Fold change vs veh, CCNY / RFU, UFL1 / Fold change vs veh, UFL1 / RFU, COG3 / Fold change vs veh, COG3 / RFU, DIAPH2 / Fold change vs veh, DIAPH2 / RFU, SKA2 / Fold change vs veh, SKA2 / RFU, AFF3 / Fold change vs veh, AFF3 / RFU, LMF1 / Fold change vs veh, LMF1 / RFU, IPO11 / Fold change vs veh, IPO11 / RFU, DFFB / Fold change vs veh, DFFB / RFU, FOXP1 / Fold change vs veh, FOXP1 / RFU, CARD8 / Fold change vs veh, CARD8 / RFU, STRN3 / Fold change vs veh, STRN3 / RFU, ADK / Fold change vs veh, ADK / RFU, RASSF2 / Fold change vs veh, RASSF2 / RFU, WIPF1 / Fold change vs veh, WIPF1 / RFU, LARP1B / Fold change vs veh, LARP1B / RFU, RASA1 / Fold change vs veh, RASA1 / RFU, RB1 / Fold change vs veh, RB1 / RFU, PPFIA1 / Fold change vs veh, PPFIA1 / RFU, MAT2A / Fold change vs veh, MAT2A / RFU, CCT5 / Fold change vs veh, CCT5 / RFU, WDR92 / Fold change vs veh, WDR92 / RFU, CUX1 / Fold change vs veh, CUX1 / RFU, TTC7A / Fold change vs veh, TTC7A / RFU, TMEM135 / Fold change vs veh, TMEM135 / RFU, DEPTOR / Fold change vs veh, DEPTOR / RFU, CPM / Fold change vs veh, CPM / RFU, DNAJB6 / Fold change vs veh, DNAJB6 / RFU, CACNA2D3 / Fold change vs veh, CACNA2D3 / RFU, DTX4 / Fold change vs veh, DTX4 / RFU, TFCP2 / Fold change vs veh, TFCP2 / RFU, GMCL1 /// GMCL1P1 / Fold change vs veh, GMCL1 /// GMCL1P1 / RFU, AEBP2 / Fold change vs veh, AEBP2 / RFU, SNHG1 /// SNORD22 /// SNORD25 /// SNORD26 /// SNORD27 /// SNORD28 /// SNORD29 /// SNORD31 / Fold change vs veh, SNHG1 /// SNORD22 /// SNORD25 /// SNORD26 /// SNORD27 /// SNORD28 /// SNORD29 /// SNORD31 / Fold change (Aza/veh), C12orf56 (ProbeSet 11735607_a_at) / Fold change (ACY-1035/veh), C12orf56 (ProbeSet 11735607_a_at) / Fold change (Aza/veh), FGFR1OP (ProbeSet 11751329_s_at) / Fold change (ACY-1035/veh), FGFR1OP (ProbeSet 11751329_s_at) / Fold change (Aza/veh), VPS36 (ProbeSet 11739960_a_at) / Fold change (ACY-1035/veh), VPS36 (ProbeSet 11739960_a_at) / RFU SYPL1 (11715823_x_at) / Fold change /veh SYPL1 (11715823_x_at) / RFU IGFBP7 (11715501_s_at) / Fold change /veh IGFBP7 (11715501_s_at) / RFU REEP3 (11722064_at) / Fold change /veh REEP3 (11722064_at) / RFU IGLL1 (11728026_x_at) / Fold change /veh IGLL1 (11728026_x_at): dose or concentration left out as unconfirmed
Details: ProbeSet 11733108_at; LIST D

Nc1ncn([C@@H]2O[C@H](CO)[C@@H](O)[C@H]2O)c(=O)n1 [azacitidine]
Fold change vs veh, GNAQ: 0.77
